Assay results from patent US20260174680A1, “MAMMARY GLAND TISSUE HEALTH MAINTENANCE AGENT HAVING GABA AS ACTIVE INGREDIENT” (SANWA SHURUI CO., LTD., priority 2022, published 2026).

Legend:
[1] = tested on: mammary gland tissue; assay: Animal experiment: E2-induced mammary gland tissue dysplasia and invasion in scid mice; type: in vivo; conditions: 25 days
Procedure: Ten-week-old Scid mice were intraperitoneally administered with 6 μg of E2 per day for 25 days, and were simultaneously intraperitoneally administered with 6 μg of Equol per day and/or were intraperitoneally administered with 0.5 mg (low) or 5 mg (high) of GABA per day. The fourth mammary gland was sampled 24 hours after the final administration, and photographs are shown of tissue observation by hematoxylin and eosin (H&E) staining (upper row) and Elastica van Gieson (EVG) staining (lower row).
This mouse model system that develops early stage breast cancer is an experimental system developed by the present inventors, and a system in which scid mice, which are a mouse strain with reduced DNA repair ability, are used to be administered estradiol (E2) intraperitoneally for […] to induce mammary gland tissue dysplasia. […] The present invention also uses this experimental system to evaluate the effects of GABA or the combined use of GABA and equol.
Ten-week-old scid mice were intraperitoneally administered PBS as a negative control group, 6 μg/day of E2 as a positive control group, 6 μg of E2+6 μg/day of equol (Eq) in experimental group 1, 6 μg of E2+0.5 mg/day of GABA in experimental group 2, 6 μg of E2+5 mg/day of GABA in experimental group 3, 6 μg of E 2+6 μg of Eq+0.5 mg of GABA in experimental group 4, and 6 μg of E 2+6 μg of Eq+5 mg of GABA in experimental group 5, with six mice in each group, every morning for 25 days. 24 hours after the final administration, the fourth mammary gland was sampled, and the tissue was observed by hematoxylin and eosin (H&E) staining and Elastica van Gieson (EVG) staining.
In addition, the frequency of occurrence of dysplasia in sections of the mammary gland tissue was evaluated.
Mouse (female): C. B-17/Icr-scid/scid Jel was purchased from CLEA Japan.
The E2 used was E2758 manufactured by SIGMA, the Equol (Eq) used was SML2147 manufactured by SIGMA, and the GABA used was A5835 manufactured by SIGMA.

[2] = tested on: mammary gland tissue; conditions: equol intraperitoneally, with estradiol administered (Non-Patent Literature 1); cited from earlier work
[3] = tested on: MCF7 (ATCC HTB-22) cells; assay: Cell test: E2-induced DNA double-strand break signals in MCF7 cells (P-Histone H2AX immunostaining); type: cell-based; conditions: 4 hours
Procedure: After MCF 7 (ATCC HTB-22) cells were cultured, and the medium was removed, 200 μL of PBS adjusted to E2-free, 10 nM of E2, or 10 nM of E2+0.3 μg/mL to 1.1 μg/mL of GABA was added to each well, and the cells were incubated at 37° C. and 5% of CO2 for 4 hours. The cells were visualized by adding a primary histone antibody, and the DNA double-strand break signals per cell were measured by observation under a microscope.
The cultured cells used were MCF7 (ATCC HTB-22). MCF7 cells were cultured for 2 days to 3 days in phenol red-free RPMI 1640 medium containing 10% of fetal bovine serum and 1 nM of E2.
The cells were passaged into phenol red-free RPMI medium containing 10% of charcoal-stripped serum (Charcoal-Stripped FBS, Thermo Fisher) and 1 nM of E 2, and seeded into an 8-well plate (SCS-N28 MAS-Coat, Matsunami) at 400 μL/well. After 1 day to 2 days, the medium on the 8-well plate was removed and replaced with serum-free, phenol red-free RPMI medium, and the cells were starved by culturing for 1 day to align the cell cycle to the G1 phase. […]
The cells were observed under a microscope, the DNA double-strand break signals per cell were measured, and statistical analysis was performed using the Mann-Whitney U-test, with p<0.05 being considered to indicate a significant difference. […]
For each experiment section, DNA double-strand break signals were counted in 100 cells.

[4] = experimental groups 1 to 5: Eq or GABA added to 6 μg/day E2 i.p.

SMILES | frequency of occurrence of dysplasia (average of E2-only positive control taken as 100%) ([1]; experimental group 1: 6 μg E2 + 6 μg/day equol i.p., negative control 16%) | invasion in mammary gland tissue sections (H&E and EVG staining) [1, 4] | mammary gland tissue dysplasia [2] | frequency of occurrence of dysplasia (average of E2-only positive control taken as 100%) ([1]; experimental group 2: 6 μg E2 + 0.5 mg/day GABA i.p.) | frequency of occurrence of dysplasia (average of E2-only positive control taken as 100%) ([1]; experimental group 3: 6 μg E2 + 5 mg/day GABA i.p.) | DNA damage (DNA double-strand break signals per cell) ([3]; 10 nM E2 + 1.1 μg/mL GABA, Mann-Whitney U-test, p<0.05) | number of DNA damages (DNA double-strand break signals per cell) ([3]; 10 nM E2 + 0.3 to 1.1 μg/mL GABA) | invasion in mammary gland tissue sections (H&E and EVG staining) ([1]; positive control: E2 only, 6 μg/day i.p.)
Oc1ccc([C@H]2COc3cc(O)ccc3C2)cc1 [Eq, equol, reference compound] | approximately 58% | no invasion was observed | mammary gland tissue dysplasia was inhibited |  |  |  |  | 
NCCCC(=O)O [GABA, γ-amino butyric acid] |  | no invasion was observed |  | 44% | 37% | significantly reduced DNA damage | tended to reduce the number of DNA damages | 
C[C@]12CC[C@@H]3c4ccc(O)cc4CC[C@H]3[C@@H]1CC[C@@H]2O [E2, estradiol, reference compound] |  |  |  |  |  |  |  | showed invasion
